Laboratory results as given in ChEMBL document CHEMBL1275587, “Emergence of ciprofloxacin-nonsusceptible Streptococcus pyogenes isolates from healthy children and pediatric patients in Portugal” (2010).
Converted amounts (≈) assume the structure as drawn.

Experiments:
Assay type in all cases: functional
Streptococcus pyogenes [1] = assay: Antimicrobial activity against ciprofloxacin-nonsusceptible Streptococcus pyogenes isolates by agar dilution method
Streptococcus pyogenes [2] = assay: Antimicrobial activity against ciprofloxacin-nonsusceptible Streptococcus pyogenes isolates assessed as susceptible isolates by agar dilution method
Streptococcus pyogenes [3] = assay: Antimicrobial activity against ciprofloxacin-nonsusceptible Streptococcus pyogenes isolates assessed as resistant isolates by agar dilution method
Streptococcus pyogenes [4] = assay: Antimicrobial activity against ciprofloxacin-nonsusceptible Streptococcus pyogenes isolates assessed as intermediate resistant isolates by agar dilution method
Streptococcus pyogenes [5] = assay: Antimicrobial activity against ciprofloxacin-nonsusceptible, AD PFGE pattern, emm6 type Streptococcus pyogenes with ST382 sequence type, ParC S79A mutant isolated from oropharyngeal colonization, tonsillitis/pharyngitis and skin/soft tissue infection
Streptococcus pyogenes [6] = assay: Antimicrobial activity against ciprofloxacin-nonsusceptible, K PFGE pattern, emm5 type Streptococcus pyogenes with ST99 sequence type, ParC D83G isolated from oropharyngeal colonization
Streptococcus pyogenes [7] = assay: Antimicrobial activity against ciprofloxacin-nonsusceptible, CJ PFGE pattern, emm89 type Streptococcus pyogenes with ST101 sequence type isolated from tonsillitis/pharyngitis
Streptococcus pyogenes [8] = assay: Antimicrobial activity against ciprofloxacin-nonsusceptible, BT PFGE pattern, emm28 type Streptococcus pyogenes with ST52 sequence type, ParC D83G mutant isolated from skin/soft tissue infection
Streptococcus pyogenes [9] = assay: Antimicrobial activity against ciprofloxacin-nonsusceptible, DY PFGE pattern, emm6 type Streptococcus pyogenes with ST382 sequence type, ParC S79A mutant isolated from oropharyngeal colonization
Streptococcus pyogenes [10] = assay: Antimicrobial activity against ciprofloxacin-nonsusceptible, AD PFGE pattern, […] sequence type, ParC S79A mutant isolated from oropharyngeal colonization
Streptococcus pyogenes [11] = assay: Antimicrobial activity against ciprofloxacin-nonsusceptible, DX PFGE pattern, emm6 type Streptococcus pyogenes with ST382 sequence type, ParC S79A mutant isolated from oropharyngeal colonization
Streptococcus pyogenes [12] = assay: Antimicrobial activity against ciprofloxacin-nonsusceptible, AM PFGE pattern, emm6 type Streptococcus pyogenes with ST382 sequence type, ParC S79A mutant isolated from oropharyngeal colonization
Streptococcus pyogenes [13] = assay: Antimicrobial activity against ciprofloxacin-nonsusceptible, AD PFGE pattern, […] sequence type, ParC S79A mutant isolated from oropharyngeal colonization and onsillitis/pharyngitis

Structure (SMILES): CN(C)c1cc(NC(=O)CNC(C)(C)C)c(O)c2c1C[C@H]1C[C@H]3[C@H](N(C)C)C(O)=C(C(N)=O)C(=O)[C@@]3(O)C(O)=C1C2=O [TIGECYCLINE]
- MIC (Streptococcus pyogenes [1]): 0.025 µg/mL (≈ 0.0427 µM)

Structure (SMILES): CC1(C)S[C@@H]2[C@H](NC(=O)[C@H](N)c3ccccc3)C(=O)N2[C@H]1C(=O)O [AMPICILLIN]
- MIC (Streptococcus pyogenes [1]): ≤ 0.25 µg/mL
- MIC50 (Streptococcus pyogenes [1]): ≤ 0.25 µg/mL
- MIC90 (Streptococcus pyogenes [1]): ≤ 0.25 µg/mL
- Activity (Streptococcus pyogenes [2]): 100%
- Activity (Streptococcus pyogenes [3]): 0%
- Activity (Streptococcus pyogenes [4]): 0%

Structure (SMILES): C[C@H]1COc2c(N3CCN(C)CC3)c(F)cc3c(=O)c(C(=O)O)cn1c23.C[C@H]1COc2c(N3CCN(C)CC3)c(F)cc3c(=O)c(C(=O)O)cn1c23.O [LEVOFLOXACIN]
- MIC (Streptococcus pyogenes [1]): 2 µg/mL
- MIC50 (Streptococcus pyogenes [1]): 2 µg/mL
- MIC90 (Streptococcus pyogenes [1]): 2 µg/mL
- Activity (Streptococcus pyogenes [2]): 92.4%
- MIC (Streptococcus pyogenes [5]): 2 µg/mL
- MIC (Streptococcus pyogenes [6]): 2 µg/mL
- MIC (Streptococcus pyogenes [7]): 2 µg/mL
- MIC (Streptococcus pyogenes [8]): 2 µg/mL
- MIC (Streptococcus pyogenes [9]): 2 µg/mL
- MIC (Streptococcus pyogenes [10]): 4 µg/mL
- MIC (Streptococcus pyogenes [11]): 2 µg/mL
- MIC (Streptococcus pyogenes [12]): 2 µg/mL
- Activity (Streptococcus pyogenes [3]): 0%
- MIC (Streptococcus pyogenes [13]): 2 µg/mL
- Activity (Streptococcus pyogenes [4]): 7.6%

Structure (SMILES): O=C(O)c1cn(C2CC2)c2cc(N3CCNCC3)c(F)cc2c1=O [CIPROFLOXACIN]
- MIC (Streptococcus pyogenes [1]): 2 µg/mL (≈ 6.04 µM)
- MIC (Streptococcus pyogenes [5]): 2 µg/mL (≈ 6.04 µM)
- MIC (Streptococcus pyogenes [6]): 2 µg/mL (≈ 6.04 µM)
- MIC (Streptococcus pyogenes [7]): 2 µg/mL (≈ 6.04 µM)
- MIC (Streptococcus pyogenes [8]): 2 µg/mL (≈ 6.04 µM)
- MIC (Streptococcus pyogenes [9]): 4 µg/mL (≈ 12.1 µM)
- MIC (Streptococcus pyogenes [10]): 4 µg/mL (≈ 12.1 µM)
- MIC (Streptococcus pyogenes [11]): 2 µg/mL (≈ 6.04 µM)
- MIC (Streptococcus pyogenes [12]): 2 µg/mL (≈ 6.04 µM)
- MIC (Streptococcus pyogenes [13]): 2 µg/mL (≈ 6.04 µM)

Structure (SMILES): CC1(C)S[C@@H]2[C@H](NC(=O)Cc3ccccc3)C(=O)N2[C@H]1C(=O)O [PENICILLIN G]
- MIC (Streptococcus pyogenes [1]): ≤ 0.03 µg/mL
- MIC50 (Streptococcus pyogenes [1]): ≤ 0.03 µg/mL
- MIC90 (Streptococcus pyogenes [1]): ≤ 0.03 µg/mL
- Activity (Streptococcus pyogenes [2]): 100%
- Activity (Streptococcus pyogenes [3]): 0%
- Activity (Streptococcus pyogenes [4]): 0%

Structure (SMILES): CO/N=C(\C(=O)N[C@@H]1C(=O)N2C(C(=O)O)=C(COC(C)=O)CS[C@H]12)c1csc(N)n1 [CEFOTAXIME]
- MIC (Streptococcus pyogenes [1]): ≤ 0.06 µg/mL
- MIC50 (Streptococcus pyogenes [1]): ≤ 0.06 µg/mL
- MIC90 (Streptococcus pyogenes [1]): ≤ 0.06 µg/mL
- Activity (Streptococcus pyogenes [2]): 100%
- Activity (Streptococcus pyogenes [3]): 0%
- Activity (Streptococcus pyogenes [4]): 0%

Structure (SMILES): CN(C)[C@@H]1C(O)=C(C(N)=O)C(=O)[C@@]2(O)C(O)=C3C(=O)c4c(O)cccc4[C@@](C)(O)[C@H]3C[C@@H]12 [TETRACYCLINE]
- MIC (Streptococcus pyogenes [1]): ≤ 2 µg/mL
- MIC50 (Streptococcus pyogenes [1]): ≤ 2 µg/mL
- MIC90 (Streptococcus pyogenes [1]): ≤ 2 µg/mL
- Activity (Streptococcus pyogenes [2]): 98.5%
- Activity (Streptococcus pyogenes [3]): 1.5%
- Activity (Streptococcus pyogenes [4]): 0%

Structure (SMILES): CCC[C@@H]1C[C@@H](C(=O)N[C@@H]([C@H]2O[C@H](SC)[C@H](O)[C@@H](O)[C@H]2O)[C@H](C)Cl)N(C)C1 [CLINDAMYCIN]
- MIC (Streptococcus pyogenes [1]): ≤ 0.25 µg/mL
- MIC50 (Streptococcus pyogenes [1]): ≤ 0.25 µg/mL
- MIC90 (Streptococcus pyogenes [1]): ≤ 0.25 µg/mL
- Activity (Streptococcus pyogenes [2]): 98.5%
- Activity (Streptococcus pyogenes [3]): 1.5%
- Activity (Streptococcus pyogenes [4]): 0%

Structure (SMILES): COc1c(N2C[C@@H]3CCCN[C@@H]3C2)c(F)cc2c(=O)c(C(=O)O)cn(C3CC3)c12 [MOXIFLOXACIN]
- MIC (Streptococcus pyogenes [1]): ≤ 0.25 µg/mL
- MIC50 (Streptococcus pyogenes [1]): 0.5 µg/mL (≈ 1.25 µM)
- MIC90 (Streptococcus pyogenes [1]): 0.5 µg/mL (≈ 1.25 µM)
- MIC (Streptococcus pyogenes [6]): 0.5 µg/mL (≈ 1.25 µM)
- MIC (Streptococcus pyogenes [7]): 0.5 µg/mL (≈ 1.25 µM)
- MIC (Streptococcus pyogenes [9]): 0.5 µg/mL (≈ 1.25 µM)
- MIC (Streptococcus pyogenes [10]): 1 µg/mL (≈ 2.49 µM)
- MIC (Streptococcus pyogenes [11]): 0.5 µg/mL (≈ 1.25 µM)
- MIC (Streptococcus pyogenes [12]): 0.5 µg/mL (≈ 1.25 µM)
- MIC (Streptococcus pyogenes [13]): 0.5 µg/mL (≈ 1.25 µM)

Structure (SMILES): CC[C@H]1OC(=O)[C@H](C)[C@@H](O[C@H]2C[C@@](C)(OC)[C@@H](O)[C@H](C)O2)[C@H](C)[C@@H](O[C@@H]2O[C@H](C)C[C@H](N(C)C)[C@H]2O)[C@](C)(O)C[C@@H](C)C(=O)[C@H](C)[C@@H](O)[C@]1(C)O [ERYTHROMYCIN]
- MIC (Streptococcus pyogenes [1]): ≤ 0.25 µg/mL
- MIC50 (Streptococcus pyogenes [1]): ≤ 0.25 µg/mL
- MIC90 (Streptococcus pyogenes [1]): ≤ 0.25 µg/mL
- Activity (Streptococcus pyogenes [2]): 98.5%
- Activity (Streptococcus pyogenes [3]): 1.5%
- Activity (Streptococcus pyogenes [4]): 0%

Structure (SMILES): CN[C@H](CC(C)C)C(=O)N[C@H]1C(=O)N[C@@H](CC(N)=O)C(=O)N[C@H]2C(=O)N[C@H]3C(=O)N[C@H](C(=O)N[C@H](C(=O)O)c4cc(O)cc(O)c4-c4cc3ccc4O)[C@H](O)c3ccc(c(Cl)c3)Oc3cc2cc(c3O[C@@H]2O[C@H](CO)[C@@H](O)[C@H](O)[C@H]2O[C@H]2C[C@](C)(N)[C@H](O)[C@H](C)O2)Oc2ccc(cc2Cl)[C@H]1O [VANCOMYCIN]
- MIC (Streptococcus pyogenes [1]): ≤ 0.25 µg/mL
- MIC50 (Streptococcus pyogenes [1]): 0.5 µg/mL (≈ 0.345 µM)
- MIC90 (Streptococcus pyogenes [1]): 0.5 µg/mL (≈ 0.345 µM)
- Activity (Streptococcus pyogenes [2]): 100%
- Activity (Streptococcus pyogenes [3]): 0%
- Activity (Streptococcus pyogenes [4]): 0%
